In paper PMC12638379, “An innovative approach to development of new pyrazolylquinolin-2-one hybrids as dual EGFR and BRAF^V600E inhibitors” (Molecular Diversity, 2025):
Where two headings read alike, the source gives them in different places.

Tested on: NCI 60 cancer cell lines
Assay: NCI anticancer screening over a panel of 60 cancer cells, single concentration 10 µM
Type: cell-based, human
Conditions: Homo sapiens, read-out: Growth inhibition (GI %)
Method: Ten final compounds 4a–j and five intermediates 2a–e have been selected by the National Cancer Institute (NCI) for anticancer screening over a panel of 60 cancer cells that cover a variety of histological tissues, including the central nervous system, leukemia, lung, colon, kidney, ovary, breast, and prostate, using the protocol established by the National Cancer Institute (NCI). In a primary screening, each compound was screened at a concentration of 10 µM.
Compounds 2a-e and 4a-j were selected by the National Cancer Institute (NCI) according to the protocol of the Compound Evaluation Branch of the National Cancer Institute, Bethesda, USA, for in vitro anticancer screening which refers in turn to apoptotic activity. The methodology of the NCI anticancer screening has been described in detail elsewhere (http://www.dtp.nci.nih.gov).

[1] = 786-0, Renal cancer 786-0, 10 μM
[2] = A549, Non-small cell lung cancer A549/ATCC, 10 μM
[3] = BT-549, Breast cancer BT-549, 10 μM
[4] = CAKI-1, Renal cancer CAKI-1, 10 μM
[5] = CCRF-CEM, Leukemia CCRF-CEM, 10 μM
[6] = COLO 205, Colon cancer COLO 205, 10 μM
[7] = DU-145, Prostate cancer DU-145, 10 μM
[8] = EKVX, Non-small cell lung cancer EKVX, 10 μM
[9] = HCC 2998, Colon cancer HCC-2998, 10 μM
[10] = HCT-15, Colon cancer HCT-15, 10 μM
[11] = HCT-116, Colon cancer HCT-116, 10 μM
[12] = HL-60, Leukemia HL-60(TB), 10 μM
[13] = HOP-62, Non-small cell lung cancer HOP-62, 10 μM
[14] = HOP-92, Non-small cell lung cancer HOP-92, 10 μM
[15] = HT-29, Colon cancer HT29, 10 μM
[16] = Hs-578T, Breast cancer HS 578T, 10 μM
[17] = IGROV-1, Ovarian cancer IGROV1, 10 μM
[18] = LOX IMVI, Melanoma LOX IMVI, 10 μM
[19] = MDA-MB-231, Breast Cancer MDA-MB 231/ATCC, 10 μM
[20] = MDA-MB-435, Melanoma MDA-MB-435, 10 μM
[21] = MDA-MB-468, Breast cancer MDA-MB-468, 10 μM
[22] = Malme-3M, Melanoma MALME-3M, 10 μM
[23] = NCI-H23, Non-small cell lung cancer NCI-H23, 10 μM
[24] = NCI-H226, Non-small cell lung cancer NCI-H226, 10 μM
[25] = NCI-H322M, Non-small cell lung cancer NCI-H322M, 10 μM
[26] = NCI-H460, Non-small cell lung cancer NCI-H460, 10 μM
[27] = NCI-H522, Non-small cell lung cancer NCI-H522, 10 μM
[28] = NCI/ADR-RES, Ovarian cancer NCI/ADR-RES, 10 μM
[29] = OVCAR-3, Ovarian cancer OVCAR-3, 10 μM
[30] = OVCAR-4, Ovarian cancer OVCAR-4, 10 μM
[31] = OVCAR-5, Ovarian cancer OVCAR-5, 10 μM
[32] = OVCAR-8, Ovarian cancer OVCAR-8, 10 μM
[33] = RPMI-8226, Leukemia RPMI-8226, 10 μM
[34] = RXF 393, Renal cancer RXF 393, 10 μM
[35] = SF-268, CNS Cancer SF-268, 10 μM
[36] = SF-295, CNS Cancer SF-295, 10 μM
[37] = SF-539, CNS Cancer SF-539, 10 μM
[38] = SK-MEL-2, Melanoma SK-MEL-2, 10 μM
[39] = SK-MEL-5, Melanoma SK-MEL-5, 10 μM
[40] = SK-MEL-28, Melanoma SK-MEL-28, 10 μM
[41] = SK-OV-3, Ovarian cancer SK-OV-3, 10 μM
[42] = SN12C, Renal cancer SN12C, 10 μM
[43] = SNB-19, CNS Cancer SNB-19, 10 μM
[44] = SNB-75, CNS Cancer SNB-75, 10 μM
[45] = SW-620, Colon cancer SW-620, 10 μM
[46] = T47D, Breast cancer T-47D, 10 μM
[47] = TK-10, Renal cancer TK-10, 10 μM
[48] = UACC-62, Melanoma UACC-62, 10 μM
[49] = UACC-257, Melanoma UACC-257, 10 μM
[50] = UO-31, Renal cancer UO-31, 10 μM

CC(=O)c1cnn(-c2cc(=O)[nH]c3ccccc23)c1C [Compound 2a, 4-(4-Acetyl-5-methyl-1H-pyrazol-1-yl)quinolin-2(1H)-one]
inhibition at 10 µM [1]: < 5%
inhibition at 10 µM (A498, Renal cancer A498, 10 μM): < 5%
inhibition at 10 µM [2]: 5.98%
inhibition at 10 µM (ACHN, Renal cancer ACHN, 10 μM): 7.82%
inhibition at 10 µM [3]: 6.06%
inhibition at 10 µM [4]: 21.5%
inhibition at 10 µM [5]: 11.3%
inhibition at 10 µM [6]: < 5%
inhibition at 10 µM [7]: < 5%
inhibition at 10 µM [8]: 54.4%
inhibition at 10 µM [9]: < 5%
inhibition at 10 µM [10]: < 5%
inhibition at 10 µM [11]: < 5%
inhibition at 10 µM [12]: 6.26%
inhibition at 10 µM [13]: 22.9%
inhibition at 10 µM [14]: 25.1%
inhibition at 10 µM [15]: < 5%
inhibition at 10 µM [16]: 8.26%
inhibition at 10 µM [17]: 37.9%
inhibition at 10 µM (K562, Leukemia K-562, 10 μM): 9.72%
inhibition at 10 µM (KM12, Colon cancer KM12, 10 μM): < 5%
inhibition at 10 µM [18]: 15.6%
inhibition at 10 µM (Leukemia SR, 10 μM): 5.8%
inhibition at 10 µM (MCF7, Breast cancer MCF7, 10 μM): 17.3%
inhibition at 10 µM [19]: 26.9%
inhibition at 10 µM [20]: < 5%
inhibition at 10 µM [21]: < 5%
inhibition at 10 µM (MOLT-4, Leukemia MOLT-4, 10 μM): 7.63%
inhibition at 10 µM [22]: 11.3%
inhibition at 10 µM (Melanoma M14, 10 μM): < 5%
inhibition at 10 µM [23]: 10.3%
inhibition at 10 µM [24]: 32.4%
inhibition at 10 µM [25]: 16.1%
inhibition at 10 µM [26]: < 5%
inhibition at 10 µM [27]: 10.3%
inhibition at 10 µM [28]: 8.35%
inhibition at 10 µM [29]: < 5%
inhibition at 10 µM [30]: < 5%
inhibition at 10 µM [31]: < 5%
inhibition at 10 µM [32]: < 5%
inhibition at 10 µM (Prostate cancer PC-3, 10 μM): 15.2%
inhibition at 10 µM [33]: 26.6%
inhibition at 10 µM [34]: < 5%
inhibition at 10 µM [35]: < 5%
inhibition at 10 µM [36]: 6.24%
inhibition at 10 µM [37]: 13%
inhibition at 10 µM [38]: < 5%
inhibition at 10 µM [39]: 11.9%
inhibition at 10 µM [40]: < 5%
inhibition at 10 µM [41]: 20%
inhibition at 10 µM [42]: 8.07%
inhibition at 10 µM [43]: 11.4%
inhibition at 10 µM [44]: < 5%
inhibition at 10 µM [45]: < 5%
inhibition at 10 µM [46]: 16.9%
inhibition at 10 µM [47]: < 5%
inhibition at 10 µM (U-251, CNS Cancer U251, 10 μM): 8.86%
inhibition at 10 µM [48]: 19.5%
inhibition at 10 µM [49]: < 5%
inhibition at 10 µM [50]: 38.3%

CC(=O)c1cnn(-c2cc(=O)[nH]c3ccc(C)cc23)c1C [Compound 2b, 4-(4-Acetyl-5-methyl-1H-pyrazol-1-yl)-6-methylquinolin-2(1H)-one]
inhibition at 10 µM [1]: < 5%
inhibition at 10 µM (A498, Renal cancer A498, 10 μM): < 5%
inhibition at 10 µM [2]: < 5%
inhibition at 10 µM (ACHN, Renal cancer ACHN, 10 μM): < 5%
inhibition at 10 µM [3]: < 5%
inhibition at 10 µM [4]: 8.89%
inhibition at 10 µM [5]: < 5%
inhibition at 10 µM [6]: < 5%
inhibition at 10 µM [7]: < 5%
inhibition at 10 µM [8]: < 5%
inhibition at 10 µM [9]: < 5%
inhibition at 10 µM [10]: < 5%
inhibition at 10 µM [11]: < 5%
inhibition at 10 µM [12]: 19%
inhibition at 10 µM [13]: 6.93%
inhibition at 10 µM [14]: < 5%
inhibition at 10 µM [15]: < 5%
inhibition at 10 µM [16]: < 5%
inhibition at 10 µM [17]: < 5%
inhibition at 10 µM (K562, Leukemia K-562, 10 μM): < 5%
inhibition at 10 µM (KM12, Colon cancer KM12, 10 μM): < 5%
inhibition at 10 µM [18]: 5.38%
inhibition at 10 µM (Leukemia SR, 10 μM): < 5%
inhibition at 10 µM [19]: < 5%
inhibition at 10 µM [20]: < 5%
inhibition at 10 µM [21]: < 5%
inhibition at 10 µM (MOLT-4, Leukemia MOLT-4, 10 μM): < 5%
inhibition at 10 µM [22]: < 5%
inhibition at 10 µM (Melanoma M14, 10 μM): < 5%
inhibition at 10 µM [23]: < 5%
inhibition at 10 µM [24]: < 5%
inhibition at 10 µM [25]: < 5%
inhibition at 10 µM [26]: < 5%
inhibition at 10 µM [27]: 6.79%
inhibition at 10 µM [28]: < 5%
inhibition at 10 µM [29]: < 5%
inhibition at 10 µM [30]: < 5%
inhibition at 10 µM [31]: < 5%
inhibition at 10 µM [32]: < 5%
inhibition at 10 µM (Prostate cancer PC-3, 10 μM): 4.29%
inhibition at 10 µM [33]: < 5%
inhibition at 10 µM [34]: < 5%
inhibition at 10 µM [35]: < 5%
inhibition at 10 µM [36]: < 5%
inhibition at 10 µM [37]: < 5%
inhibition at 10 µM [38]: < 5%
inhibition at 10 µM [39]: < 5%
inhibition at 10 µM [40]: < 5%
inhibition at 10 µM [41]: < 5%
inhibition at 10 µM [42]: < 5%
inhibition at 10 µM [43]: < 5%
inhibition at 10 µM [44]: < 5%
inhibition at 10 µM [45]: < 5%
inhibition at 10 µM [46]: 6.75%
inhibition at 10 µM [47]: < 5%
inhibition at 10 µM (U-251, CNS Cancer U251, 10 μM): 5.31%
inhibition at 10 µM [48]: < 5%
inhibition at 10 µM [49]: < 5%
inhibition at 10 µM [50]: 19%
